The source made the active and inactive calls. The rule behind the calls is not given here.
Tested on: CCRIS mutagenicity, Ames/micronucleus/aberration tests
Experiment: CCRIS mutagenicity studies
[1] = Test System: AMES SALMONELLA TYPHIMURIUM, Strain/Indicator: TA100, Metabolic Activation: HUMAN, LIVER, S-9, Method: PREINCUBATION
[2] = Test System: AMES SALMONELLA TYPHIMURIUM, Strain/Indicator: TA100, Metabolic Activation: NONE, Method: PREINCUBATION

**Q.** For `O[C@@H]1[C@@H]2O[C@@H]2c2c(ccc3ccc4ccccc4c23)[C@H]1O`, which mutagenic call (Test System: E. COLI, Strain/Indicator: CL101P, Metabolic Activation: NONE, Method: PREINCUBATION) is on record?
**A.** active; positive

**Q.** What about the mutagenic call (Test System: E. COLI, Strain/Indicator: CL102P, Metabolic Activation: NONE, Method: PREINCUBATION) of the same compound?
**A.** active; positive

**Q.** What about the mutagenic call (Test System: E. COLI, Strain/Indicator: CL103P, Metabolic Activation: NONE, Method: PREINCUBATION) of the same compound?
**A.** active; positive

**Q.** What about the mutagenic call (Test System: E. COLI, Strain/Indicator: CL104P, Metabolic Activation: NONE, Method: PREINCUBATION) of the same compound?
**A.** active; positive

**Q.** What about the mutagenic call (Test System: E. COLI, Strain/Indicator: CL105P, Metabolic Activation: NONE, Method: PREINCUBATION) of the same compound?
**A.** active; positive

**Q.** What about the mutagenic call (Test System: E. COLI, Strain/Indicator: CL106P, Metabolic Activation: NONE, Method: PREINCUBATION) of the same compound?
**A.** active; positive

**Q.** How did the mutagenic call (Test System: AMES SALMONELLA TYPHIMURIUM, Strain/Indicator: TA100, Metabolic Activation: HAMSTER, LIVER, S-9, 3-METHYLCHOLANTHRENE, Method: PREINCUBATION) turn out when `CC(=O)CN(C)N=O` was run?
**A.** active; positive

**Q.** And the mutagenic call (Test System: AMES SALMONELLA TYPHIMURIUM, Strain/Indicator: TA100, Metabolic Activation: HAMSTER, LIVER, S-9, PHENOBARBITAL, Method: PREINCUBATION)?
**A.** active; positive

**Q.** And the mutagenic call [1]?
**A.** inactive; negative

**Q.** What about the mutagenic call (Test System: AMES SALMONELLA TYPHIMURIUM, Strain/Indicator: TA100, Metabolic Activation: MONKEY, LIVER, S-9, Method: PREINCUBATION) of the same compound?
**A.** active; positive

**Q.** And the mutagenic call (Test System: AMES SALMONELLA TYPHIMURIUM, Strain/Indicator: TA100, Metabolic Activation: MOUSE, LIVER, S-9, 3-METHYLCHOLANTHRENE, Method: PREINCUBATION)?
**A.** active; positive

**Q.** And the mutagenic call (Test System: AMES SALMONELLA TYPHIMURIUM, Strain/Indicator: TA100, Metabolic Activation: MOUSE, LIVER, S-9, PHENOBARBITAL, Method: PREINCUBATION)?
**A.** active; positive

**Q.** And the mutagenic call (Test System: AMES SALMONELLA TYPHIMURIUM, Strain/Indicator: TA100, Metabolic Activation: MOUSE, LIVER, S-9, Method: PREINCUBATION)?
**A.** active; positive

**Q.** And the mutagenic call [2]?
**A.** inactive; negative

**Q.** What about the mutagenic call (Test System: AMES SALMONELLA TYPHIMURIUM, Strain/Indicator: TA100, Metabolic Activation: RABBIT, LIVER, S-9, Method: PREINCUBATION) of the same compound?
**A.** active; positive

**Q.** What about the mutagenic call (Test System: AMES SALMONELLA TYPHIMURIUM, Strain/Indicator: TA100, Metabolic Activation: RAT, LIVER, CYTOSOL, PCB, Method: PREINCUBATION) of the same compound?
**A.** inactive; negative

**Q.** And the mutagenic call (Test System: AMES SALMONELLA TYPHIMURIUM, Strain/Indicator: TA100, Metabolic Activation: RAT, LIVER, MICROSOMES AND CYTOSOL, PCB, Method: PREINCUBATION)?
**A.** active; positive

**Q.** What about the mutagenic call (Test System: AMES SALMONELLA TYPHIMURIUM, Strain/Indicator: TA100, Metabolic Activation: RAT, LIVER, MICROSOMES AND G6PDH, PCB, Method: PREINCUBATION) of the same compound?
**A.** active; positive

**Q.** What about the mutagenic call (Test System: AMES SALMONELLA TYPHIMURIUM, Strain/Indicator: TA100, Metabolic Activation: RAT, LIVER, MICROSOMES, PCB, Method: PREINCUBATION) of the same compound?
**A.** active; positive

**Q.** And the mutagenic call (Test System: AMES SALMONELLA TYPHIMURIUM, Strain/Indicator: TA100, Metabolic Activation: RAT, LIVER, S-9 (HEATED), PCB, Method: PREINCUBATION)?
**A.** inactive; negative

**Q.** And the mutagenic call (Test System: AMES SALMONELLA TYPHIMURIUM, Strain/Indicator: TA100, Metabolic Activation: RAT, LIVER, S-9, 3-METHYLCHOLANTHRENE, Method: PREINCUBATION)?
**A.** inactive; negative

**Q.** What about the mutagenic call (Test System: AMES SALMONELLA TYPHIMURIUM, Strain/Indicator: TA100, Metabolic Activation: RAT, LIVER, S-9, PCB, Method: PREINCUBATION) of the same compound?
**A.** active; positive

**Q.** And the mutagenic call (Test System: AMES SALMONELLA TYPHIMURIUM, Strain/Indicator: TA100, Metabolic Activation: RAT, LIVER, S-9, PHENOBARBITAL, Method: PREINCUBATION)?
**A.** active; positive

**Q.** And the mutagenic call (Test System: AMES SALMONELLA TYPHIMURIUM, Strain/Indicator: TA100, Metabolic Activation: RAT, LIVER, S-9 WITHOUT NADP+, PCB, Method: PREINCUBATION)?
**A.** inactive; negative

**Q.** And the mutagenic call (Test System: AMES SALMONELLA TYPHIMURIUM, Strain/Indicator: TA100, Method: PREINCUBATION)?
**A.** active; positive

**Q.** What about the mutagenic call (Test System: CHINESE HAMSTER V-79, Strain/Indicator: V-79/OUABAIN, Metabolic Activation: HAMSTER, HEPATOCYTES, Method: CELL-MEDIATED) of the same compound?
**A.** active; positive

**Q.** How did the mutagenic call (Test System: AMES SALMONELLA TYPHIMURIUM, Strain/Indicator: TA98, Metabolic Activation: NONE, Method: PREINCUBATION) turn out when `Nc1ccc(Cc2ccc(NO)c(Cl)c2)cc1Cl` was run?
**A.** active; positive

**Q.** What about the mutagenic call [2] of the same compound?
**A.** active; positive

**Q.** How did the mutagenic call (Test System: AMES SALMONELLA TYPHIMURIUM, Strain/Indicator: TA100, Metabolic Activation: HAMSTER, LIVER, S-9, Method: PREINCUBATION) turn out when `CCN(C)N=O` was run?
**A.** active; positive

**Q.** And the mutagenic call [1]?
**A.** inactive; negative

**Q.** And the mutagenic call (Test System: AMES SALMONELLA TYPHIMURIUM, Strain/Indicator: TA100, Metabolic Activation: PIG, LIVER, S-9, Method: PREINCUBATION)?
**A.** inactive; negative

**Q.** And the mutagenic call (Test System: AMES SALMONELLA TYPHIMURIUM, Strain/Indicator: TA100, Metabolic Activation: RAT, LIVER, S-9, Method: PREINCUBATION)?
**A.** inactive; negative

**Q.** `CCCCC(CC)COP(=O)(OCC(CC)CCCC)OCC(CC)CCCC` (stereo unspecified) was tested. Which mutagenic call (End Point: IN VITRO CHROMOSOMAL ABERRATIONS, Test System: CHO CELLS, Metabolic Activation: NONE) did it give?
**A.** inactive; negative

**Q.** What about the mutagenic call (End Point: IN VITRO CHROMOSOMAL ABERRATIONS, Test System: CHO CELLS, Metabolic Activation: RAT, LIVER, S-9, AROCLOR 1254) of the same compound?
**A.** inactive; negative

**Q.** And the mutagenic call (Test System: AMES SALMONELLA TYPHIMURIUM, Strain/Indicator: TA98, Metabolic Activation: HAMSTER, LIVER, S-9, AROCLOR 1254, Method: STANDARD PLATE)?
**A.** inactive; negative

**Q.** What about the mutagenic call (Test System: AMES SALMONELLA TYPHIMURIUM, Strain/Indicator: TA98, Metabolic Activation: NONE, Method: STANDARD PLATE) of the same compound?
**A.** inactive; negative

**Q.** And the mutagenic call (Test System: AMES SALMONELLA TYPHIMURIUM, Strain/Indicator: TA98, Metabolic Activation: RAT, LIVER, S-9, AROCLOR 1254, Method: STANDARD PLATE)?
**A.** inactive; negative

**Q.** And the mutagenic call (Test System: AMES SALMONELLA TYPHIMURIUM, Strain/Indicator: TA100, Metabolic Activation: HAMSTER, LIVER, S-9, AROCLOR 1254, Method: STANDARD PLATE)?
**A.** inactive; negative

**Q.** And the mutagenic call (Test System: AMES SALMONELLA TYPHIMURIUM, Strain/Indicator: TA100, Metabolic Activation: NONE, Method: STANDARD PLATE)?
**A.** inactive; negative

**Q.** What about the mutagenic call (Test System: AMES SALMONELLA TYPHIMURIUM, Strain/Indicator: TA100, Metabolic Activation: RAT, LIVER, S-9, AROCLOR 1254, Method: STANDARD PLATE) of the same compound?
**A.** inactive; negative

**Q.** What about the mutagenic call (Test System: AMES SALMONELLA TYPHIMURIUM, Strain/Indicator: TA1535, Metabolic Activation: HAMSTER, LIVER, S-9, AROCLOR 1254, Method: STANDARD PLATE) of the same compound?
**A.** inactive; negative

**Q.** And the mutagenic call (Test System: AMES SALMONELLA TYPHIMURIUM, Strain/Indicator: TA1535, Metabolic Activation: NONE, Method: STANDARD PLATE)?
**A.** inactive; negative

**Q.** What about the mutagenic call (Test System: AMES SALMONELLA TYPHIMURIUM, Strain/Indicator: TA1535, Metabolic Activation: RAT, LIVER, S-9, AROCLOR 1254, Method: STANDARD PLATE) of the same compound?
**A.** inactive; negative

**Q.** What about the mutagenic call (Test System: AMES SALMONELLA TYPHIMURIUM, Strain/Indicator: TA1537, Metabolic Activation: HAMSTER, LIVER, S-9, AROCLOR 1254, Method: STANDARD PLATE) of the same compound?
**A.** inactive; negative

**Q.** And the mutagenic call (Test System: AMES SALMONELLA TYPHIMURIUM, Strain/Indicator: TA1537, Metabolic Activation: NONE, Method: STANDARD PLATE)?
**A.** inactive; negative

**Q.** And the mutagenic call (Test System: AMES SALMONELLA TYPHIMURIUM, Strain/Indicator: TA1537, Metabolic Activation: RAT, LIVER, S-9, AROCLOR 1254, Method: STANDARD PLATE)?
**A.** inactive; negative

Source: PubChem BioAssay AID1259407 (Chemical Carcinogenesis Research Information System (CCRIS), 2018)
